{"source": "BindingDB's records for doi:10.1021/jm900414x", "about": "(University of Dundee, 2009)", "target": "T1, Pteridine reductase (Trypanosoma brucei brucei, UniProt O76290)", "T1 sequence (O76290 whole entry)": "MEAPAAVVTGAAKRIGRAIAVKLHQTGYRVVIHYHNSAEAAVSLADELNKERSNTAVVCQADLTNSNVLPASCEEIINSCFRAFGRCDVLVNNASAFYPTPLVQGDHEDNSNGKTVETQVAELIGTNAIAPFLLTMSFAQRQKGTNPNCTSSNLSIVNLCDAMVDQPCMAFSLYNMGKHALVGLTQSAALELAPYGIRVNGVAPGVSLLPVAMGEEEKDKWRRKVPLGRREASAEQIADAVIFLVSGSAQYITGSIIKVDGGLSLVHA", "assay": "PTR1 Activity Assay", "details": "pH 6; 23 °C", "procedure": "TbPTR1 activity was measured in 96-well microtiter plates via reduction of cytochrome c (cytc) as a result of the enzymatic production of tetrahydrobiopterin (H4B). Enzyme activity was monitored by reading absorbance at 550 nm within the linear phase of reaction. Ki (app) values were calculated using a modified Morrison equation."}
{"smiles": "CCn1c(N)nc2ccccc21", "note": "[2-aminobenzimidazole deriv., 7]", "values": [{"measurement": "Ki", "value": "> 200", "unit": "µM"}]}
